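Where inhibition never reached the appropriate level, the endpoint shown equals the highest concentration tested. Otherwise, values were interpolated linearly from a five-concentration, 48-hour dose response in 96-well plates. Here, GI50 denotes the concentration required for 50% inhibition of growth. Definition used: TGI = concentration required for complete inhibition of growth.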
What was measured:
Assay in all cases: growth of human tumour cells (NCI), 48 h
SF-268 CNS = tested on: SF-268 CNS
U251 CNS = tested on: U251 CNS
NCI-H522 lung = tested on: NCI-H522 lung
MDA-MB-435 = tested on: MDA-MB-435
SK-MEL-28 melanoma = tested on: SK-MEL-28 melanoma
MALME-3M melanoma = tested on: MALME-3M melanoma
HCC-2998 colon = tested on: HCC-2998 colon
UACC-62 melanoma = tested on: UACC-62 melanoma
SW-620 colon = tested on: SW-620 colon
ACHN renal = tested on: ACHN renal
SNB-19 CNS = tested on: SNB-19 CNS
EKVX NSCLC = tested on: EKVX NSCLC
NCI-H460 lung = tested on: NCI-H460 lung
LOX IMVI melanoma = tested on: LOX IMVI melanoma
K-562 leukemia = tested on: K-562 leukemia
HCT-116 colon = tested on: HCT-116 colon
786-0 renal = tested on: 786-0 renal
KM12 colon = tested on: KM12 colon
SF-295 CNS = tested on: SF-295 CNS
OVCAR-4 ovarian = tested on: OVCAR-4 ovarian
A549 NSCLC = tested on: A549 NSCLC
UO-31 renal = tested on: UO-31 renal
BT-549 breast = tested on: BT-549 breast
MOLT-4 leukemia = tested on: MOLT-4 leukemia
DU-145 prostate = tested on: DU-145 prostate
HOP-62 NSCLC = tested on: HOP-62 NSCLC
CAKI-1 renal = tested on: CAKI-1 renal
OVCAR-3 ovarian = tested on: OVCAR-3 ovarian
HCT-15 colon = tested on: HCT-15 colon
COLO 205 colon = tested on: COLO 205 colon
SF-539 CNS = tested on: SF-539 CNS
SK-MEL-5 melanoma = tested on: SK-MEL-5 melanoma
MDA-MB-231 breast = tested on: MDA-MB-231 breast
HS 578T breast = tested on: HS 578T breast
TK-10 renal = tested on: TK-10 renal
MCF7 breast = tested on: MCF7 breast
RXF 393 renal = tested on: RXF 393 renal
M14 melanoma = tested on: M14 melanoma
SK-OV-3 ovarian = tested on: SK-OV-3 ovarian
OVCAR-8 ovarian = tested on: OVCAR-8 ovarian
PC-3 prostate = tested on: PC-3 prostate
SR leukemia = tested on: SR leukemia
OVCAR-5 ovarian = tested on: OVCAR-5 ovarian
HOP-92 NSCLC = tested on: HOP-92 NSCLC
T-47D breast = tested on: T-47D breast
NCI-H23 lung = tested on: NCI-H23 lung
A498 renal = tested on: A498 renal
NCI/ADR-RES ovarian = tested on: NCI/ADR-RES ovarian
CCRF-CEM leukemia = tested on: CCRF-CEM leukemia
UACC-257 melanoma = tested on: UACC-257 melanoma
SK-MEL-2 melanoma = tested on: SK-MEL-2 melanoma
NCI-H226 lung = tested on: NCI-H226 lung
HT29 colon = tested on: HT29 colon
RPMI-8226 leukemia = tested on: RPMI-8226 leukemia
SN12C renal = tested on: SN12C renal
SNB-75 CNS = tested on: SNB-75 CNS
IGROV1 ovarian = tested on: IGROV1 ovarian
HL-60(TB) leukemia = tested on: HL-60(TB) leukemia

COC(=O)[C@]12CC[C@@H](C)[C@H](C)[C@@H]1C1=CC[C@@H]3[C@@]4(C)C/C(=N\O)[C@H](O)[C@@]5(C)COC(=C45)C[C@@]3(C)[C@]1(C)CC2 was tested, and the GI50 (SF-268 CNS) was 12.6 µM, the TGI (SF-268 CNS) was 30 µM and the GI50 (U251 CNS) was 3.02 µM. It also gave a TGI (U251 CNS) of 9.79 µM, a GI50 (NCI-H522 lung) of 14.1 µM and a TGI (NCI-H522 lung) of 30.1 µM. For the same compound, the GI50 (MDA-MB-435) was 8.28 µM, the TGI (MDA-MB-435) was 22.2 µM and the GI50 (SK-MEL-28 melanoma) was 15 µM. For the same compound, the TGI (SK-MEL-28 melanoma) was 33.7 µM, the GI50 (MALME-3M melanoma) was 15.9 µM and the TGI (MALME-3M melanoma) was 34.2 µM. For the same compound, the GI50 (HCC-2998 colon) was 11.5 µM, the TGI (HCC-2998 colon) was 24.9 µM and the GI50 (UACC-62 melanoma) was 12.6 µM. The TGI (UACC-62 melanoma) was 27.1 µM, the GI50 (SW-620 colon) was 8.42 µM and the TGI (SW-620 colon) was 21.9 µM. The GI50 (ACHN renal) was 2.58 µM, the TGI (ACHN renal) was 7.41 µM and the GI50 (SNB-19 CNS) was 10.5 µM. It also gave a TGI (SNB-19 CNS) of 31.5 µM, a GI50 (EKVX NSCLC) of 10.3 µM and a TGI (EKVX NSCLC) of 24.3 µM. For the same compound, the GI50 (NCI-H460 lung) was 3.29 µM, the TGI (NCI-H460 lung) was 10.7 µM and the GI50 (LOX IMVI melanoma) was 4.6 µM. For the same compound, the TGI (LOX IMVI melanoma) was 17 µM, the GI50 (K-562 leukemia) was 3.77 µM and the TGI (K-562 leukemia) was 14.9 µM. The GI50 (HCT-116 colon) was 2.42 µM, the TGI (HCT-116 colon) was 7.11 µM and the GI50 (786-0 renal) was 1.76 µM. For the same compound, the TGI (786-0 renal) was 3.26 µM, the GI50 (KM12 colon) was 5.77 µM and the TGI (KM12 colon) was 20.2 µM. The GI50 (SF-295 CNS) was 4.82 µM, the TGI (SF-295 CNS) was 17.1 µM and the GI50 (OVCAR-4 ovarian) was 4.46 µM. For the same compound, the TGI (OVCAR-4 ovarian) was 18.6 µM, the GI50 (A549 NSCLC) was 10.4 µM and the TGI (A549 NSCLC) was 24.4 µM. The GI50 (UO-31 renal) was 12.3 µM, the TGI (UO-31 renal) was 29.2 µM and the GI50 (BT-549 breast) was 15.7 µM. The TGI (BT-549 breast) was 34.8 µM, the GI50 (MOLT-4 leukemia) was 2.97 µM and the TGI (MOLT-4 leukemia) was 10.8 µM. For the same compound, the GI50 (DU-145 prostate) was 8.57 µM, the TGI (DU-145 prostate) was 22.8 µM and the GI50 (HOP-62 NSCLC) was 12.3 µM. The TGI (HOP-62 NSCLC) was 26.3 µM, the GI50 (CAKI-1 renal) was 11.2 µM and the TGI (CAKI-1 renal) was 24.7 µM. For the same compound, the GI50 (OVCAR-3 ovarian) was 5.47 µM, the TGI (OVCAR-3 ovarian) was 18.2 µM and the GI50 (HCT-15 colon) was 5.47 µM. For the same compound, the TGI (HCT-15 colon) was 17.7 µM, the GI50 (COLO 205 colon) was 7.75 µM and the TGI (COLO 205 colon) was 21.8 µM. For the same compound, the GI50 (SF-539 CNS) was 9.05 µM, the TGI (SF-539 CNS) was 22.4 µM and the GI50 (SK-MEL-5 melanoma) was 13.1 µM. It also gave a TGI (SK-MEL-5 melanoma) of 25.8 µM, a GI50 (MDA-MB-231 breast) of 3.84 µM and a TGI (MDA-MB-231 breast) of 16 µM. The GI50 (HS 578T breast) was 11.4 µM, the TGI (HS 578T breast) was 32.5 µM and the GI50 (TK-10 renal) was 18.3 µM. For the same compound, the TGI (TK-10 renal) was 33.9 µM, the GI50 (MCF7 breast) was 3.5 µM and the TGI (MCF7 breast) was 15.3 µM. The GI50 (RXF 393 renal) was 2.41 µM, the TGI (RXF 393 renal) was 7.36 µM and the GI50 (M14 melanoma) was 14.2 µM. For the same compound, the TGI (M14 melanoma) was 27.7 µM, the GI50 (SK-OV-3 ovarian) was 16.6 µM and the TGI (SK-OV-3 ovarian) was 30.5 µM. The GI50 (OVCAR-8 ovarian) was 10 µM, the TGI (OVCAR-8 ovarian) was 26.6 µM and the GI50 (PC-3 prostate) was 2.34 µM. The TGI (PC-3 prostate) was 6.51 µM, the GI50 (SR leukemia) was 2.33 µM and the TGI (SR leukemia) was 5.77 µM. It also gave a GI50 (OVCAR-5 ovarian) of 15.9 µM, a TGI (OVCAR-5 ovarian) of 33.6 µM and a GI50 (HOP-92 NSCLC) of 2.98 µM. It also gave a TGI (HOP-92 NSCLC) of 10.3 µM, a GI50 (T-47D breast) of 9.3 µM and a TGI (T-47D breast) of 25.7 µM. It also gave a GI50 (NCI-H23 lung) of 6.89 µM, a TGI (NCI-H23 lung) of 22.3 µM and a GI50 (A498 renal) of 9.94 µM. For the same compound, the TGI (A498 renal) was 21.9 µM, the GI50 (NCI/ADR-RES ovarian) was 2.61 µM and the TGI (NCI/ADR-RES ovarian) was 7.88 µM. The GI50 (CCRF-CEM leukemia) was 2.79 µM, the TGI (CCRF-CEM leukemia) was 8.83 µM and the GI50 (UACC-257 melanoma) was 18.6 µM. The TGI (UACC-257 melanoma) was 34.5 µM, the GI50 (SK-MEL-2 melanoma) was 13.4 µM and the TGI (SK-MEL-2 melanoma) was 28.9 µM. It also gave a GI50 (NCI-H226 lung) of 14.8 µM, a TGI (NCI-H226 lung) of 33.5 µM and a GI50 (HT29 colon) of 2.88 µM. For the same compound, the TGI (HT29 colon) was 9.31 µM, the GI50 (RPMI-8226 leukemia) was 2.67 µM and the TGI (RPMI-8226 leukemia) was 6.82 µM. The GI50 (SN12C renal) was 5.79 µM, the TGI (SN12C renal) was 21.2 µM and the GI50 (SNB-75 CNS) was 3.51 µM. For the same compound, the TGI (SNB-75 CNS) was 21.4 µM, the GI50 (IGROV1 ovarian) was 8.87 µM and the TGI (IGROV1 ovarian) was 25.1 µM. For the same compound, the GI50 (HL-60(TB) leukemia) was 3.64 µM and the TGI (HL-60(TB) leukemia) was 13.2 µM.
